# From ChEMBL document CHEMBL1201862, “PubChem BioAssay data set” (2004)
# Active and inactive are the calls of the source.
# Experiments:
# Trypsin = Trypsin (Sus scrofa, UniProt P00761); assay: porcine trypsin inhibitors, dose response, selectivity assay for Rce1 protease inhibitor project, biochemical, quenched peptide fluorescence, cherry-pick (AID 488789)
# CAAX prenyl protease 1 = CAAX prenyl protease 1 (Saccharomyces cerevisiae S288c, UniProt P47154); assay: Ste24 protease inhibitors, dose response, biochemical, S. cerevisiae, plate reader, cherry-pick (AID 488815)
# CAAX prenyl protease 2 = CAAX prenyl protease 2 (Homo sapiens, UniProt Q9Y256); assay: human Rce1 protease inhibitors, dose response, biochemical, yeast membranes, quenched-peptide fluorescence, cherry-pick (AID 588849)
# [1] = target: Serine/threonine-protein phosphatase PP1-alpha catalytic subunit (Homo sapiens, UniProt P62136); assay: PP1 phosphatase inhibitors, dose response, biochemical, fluorescence (AID 2394)
# [2] = target: Serine/threonine-protein phosphatase (Homo sapiens, UniProt Q9BPW0); assay: PP5 phosphatase inhibitors, dose response, biochemical, fluorescence (AID 2395)
# [3] = target: Lysine-specific demethylase 4C (Homo sapiens, UniProt Q9H3R0); assay: GASC-1 (JMJD2C) histone demethylase inhibitors, dose response, biochemical, DELFIA europium, cherry-picked samples (AID 488835); assay type: functional
# [4] = AlphaScreen signal interference compounds, dose response, artefact control for ARNT-TACC3 interaction inhibitor project, biochemical, luminescence, cherry-pick (AID 651705); assay type: functional;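 further: AlphaScreen bead proximity signal that flags compounds interfering with the detection technology; potency reflects signal decrease which marks the compound as an assay artifact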
# Beta-lactamase [5] = target: Beta-lactamase (Pseudomonas aeruginosa, UniProt Q79MP6);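 further: biochemical dose-response test of metallo-beta-lactamase enzyme inhibition, read out by epi-absorbance; purified recombinant IMP-1 metallo-beta-lactamase with nitrocefin as substrate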
# Chain of Beta-lactamase (Pseudomonas aeruginosa, UniProt Q79MP6) (Q79MP6 whole entry): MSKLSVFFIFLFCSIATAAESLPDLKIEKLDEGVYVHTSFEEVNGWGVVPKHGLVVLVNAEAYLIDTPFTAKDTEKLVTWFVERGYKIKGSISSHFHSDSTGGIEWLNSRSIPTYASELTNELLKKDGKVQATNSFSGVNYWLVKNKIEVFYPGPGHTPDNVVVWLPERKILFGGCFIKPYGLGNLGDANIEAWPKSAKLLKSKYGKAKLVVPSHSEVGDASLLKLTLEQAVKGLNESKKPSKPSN
# Beta-lactamase [6] = target: Beta-lactamase (Salmonella choleraesuis (strain SC-B67), UniProt Q5J463)
# Chain of Beta-lactamase (Salmonella choleraesuis (strain SC-B67), UniProt Q5J463) (Q5J463 whole entry): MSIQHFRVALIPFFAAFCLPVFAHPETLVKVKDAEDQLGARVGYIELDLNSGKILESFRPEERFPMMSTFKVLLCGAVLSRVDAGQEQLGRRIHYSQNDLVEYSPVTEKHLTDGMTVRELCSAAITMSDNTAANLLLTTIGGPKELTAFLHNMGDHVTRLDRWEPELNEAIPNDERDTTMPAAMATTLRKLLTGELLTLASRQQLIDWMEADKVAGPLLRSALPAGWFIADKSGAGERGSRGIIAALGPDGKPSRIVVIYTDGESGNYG
# ORF 73 = ORF 73 (Human herpesvirus 8, UniProt O40947); assay: inhibitors of C-LANA binding to LBS DNA, dose response, biochemical, fluorescence polarization, cherry-picked samples (AID 504725); set-up: species or system Human gammaherpesvirus 8;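 further: fluorescence polarization of a labeled DNA duplex reporting LANA DNA binding; potency is for inhibitors that block LANA binding to the DNA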
# Chain of ORF 73 (O40947 whole entry): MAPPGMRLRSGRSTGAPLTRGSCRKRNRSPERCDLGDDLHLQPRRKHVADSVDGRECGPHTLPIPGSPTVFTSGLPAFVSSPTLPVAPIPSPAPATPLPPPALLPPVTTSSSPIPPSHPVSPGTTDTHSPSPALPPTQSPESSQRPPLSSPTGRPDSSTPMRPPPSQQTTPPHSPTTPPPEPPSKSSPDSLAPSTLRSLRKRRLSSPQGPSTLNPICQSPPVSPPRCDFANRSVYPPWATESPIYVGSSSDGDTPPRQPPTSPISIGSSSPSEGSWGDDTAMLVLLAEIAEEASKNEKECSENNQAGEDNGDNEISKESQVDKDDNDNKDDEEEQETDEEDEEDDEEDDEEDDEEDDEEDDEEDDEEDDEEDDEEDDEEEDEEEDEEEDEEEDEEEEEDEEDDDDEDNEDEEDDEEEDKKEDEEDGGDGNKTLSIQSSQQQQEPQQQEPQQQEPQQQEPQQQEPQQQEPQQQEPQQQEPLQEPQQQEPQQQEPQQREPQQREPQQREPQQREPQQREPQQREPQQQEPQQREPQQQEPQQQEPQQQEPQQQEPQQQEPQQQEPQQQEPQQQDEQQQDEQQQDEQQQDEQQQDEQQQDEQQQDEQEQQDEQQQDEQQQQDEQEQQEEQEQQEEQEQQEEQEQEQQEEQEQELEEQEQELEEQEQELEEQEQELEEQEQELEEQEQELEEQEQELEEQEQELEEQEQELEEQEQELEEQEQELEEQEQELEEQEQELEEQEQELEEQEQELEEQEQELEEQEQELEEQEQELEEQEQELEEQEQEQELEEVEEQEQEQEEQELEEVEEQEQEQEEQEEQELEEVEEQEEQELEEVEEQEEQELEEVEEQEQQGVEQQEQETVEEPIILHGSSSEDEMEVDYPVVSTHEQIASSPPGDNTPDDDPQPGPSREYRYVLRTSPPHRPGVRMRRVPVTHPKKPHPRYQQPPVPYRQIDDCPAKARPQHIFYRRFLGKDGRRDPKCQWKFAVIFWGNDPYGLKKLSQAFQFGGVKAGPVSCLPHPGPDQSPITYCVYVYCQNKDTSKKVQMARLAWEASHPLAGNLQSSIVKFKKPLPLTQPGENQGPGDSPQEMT
# [7] = target: UDP-galactopyranose mutase (Mycobacterium tuberculosis, UniProt P9WIQ1); assay: Inhibitors of Mycobacterium tuberculosis UDP-galactopyranose mutase (UGM) enzyme Measured in Biochemical System Using Plate Reader - 2105-02_Inhibitor_Dose_CherryPick_Activity. [Related pubchem assays (depositor defined):AID504439]
# Keap1/Nrf2 = Keap1/Nrf2 (Homo sapiens, UniProt Q14145); assay: Keap1-Nrf2 protein-protein interaction inhibitors, dose response, biochemical, fluorescence polarization, cherry-picked samples (AID 588683)
# Aminopeptidase N = target: T1, Aminopeptidase N (Plasmodium falciparum FcB1/Columbia, UniProt O96935); assay: P. falciparum M1AAP inhibitors, biochemical, fluorogenic H-Leu-NHMec substrate, 1536-well (AID 1445); set-up: species or system Plasmodium falciparum 3D7, 3D7
# T1 sequence (O96935 whole entry): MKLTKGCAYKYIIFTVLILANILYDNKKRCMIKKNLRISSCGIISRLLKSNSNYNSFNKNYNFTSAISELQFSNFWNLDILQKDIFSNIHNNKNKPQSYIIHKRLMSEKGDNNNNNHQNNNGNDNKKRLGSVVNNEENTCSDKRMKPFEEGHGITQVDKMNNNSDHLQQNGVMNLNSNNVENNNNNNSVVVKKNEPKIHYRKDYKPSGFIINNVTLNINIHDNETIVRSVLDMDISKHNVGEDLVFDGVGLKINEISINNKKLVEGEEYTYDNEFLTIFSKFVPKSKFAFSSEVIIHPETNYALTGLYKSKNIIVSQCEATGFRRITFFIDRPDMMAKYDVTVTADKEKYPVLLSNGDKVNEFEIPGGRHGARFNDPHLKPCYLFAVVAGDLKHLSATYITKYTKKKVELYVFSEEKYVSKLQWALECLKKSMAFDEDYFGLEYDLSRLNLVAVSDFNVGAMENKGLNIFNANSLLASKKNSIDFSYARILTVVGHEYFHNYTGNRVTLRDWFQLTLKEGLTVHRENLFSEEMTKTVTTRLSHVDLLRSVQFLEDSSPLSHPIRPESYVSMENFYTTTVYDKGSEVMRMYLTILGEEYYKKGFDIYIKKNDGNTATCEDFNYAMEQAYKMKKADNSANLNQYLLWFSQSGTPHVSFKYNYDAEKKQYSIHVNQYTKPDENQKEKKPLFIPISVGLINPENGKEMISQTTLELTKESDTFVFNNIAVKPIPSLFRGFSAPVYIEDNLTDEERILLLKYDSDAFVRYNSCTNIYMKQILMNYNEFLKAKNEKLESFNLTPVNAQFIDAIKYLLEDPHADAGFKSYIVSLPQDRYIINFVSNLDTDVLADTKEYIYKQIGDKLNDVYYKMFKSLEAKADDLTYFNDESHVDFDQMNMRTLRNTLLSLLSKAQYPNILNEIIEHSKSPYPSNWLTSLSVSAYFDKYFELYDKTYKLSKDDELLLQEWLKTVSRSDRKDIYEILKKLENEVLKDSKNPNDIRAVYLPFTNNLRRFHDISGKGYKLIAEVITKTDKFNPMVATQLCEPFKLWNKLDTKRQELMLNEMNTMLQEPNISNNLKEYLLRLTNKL
# SUMO-activating enzyme [8] = target: T2, SUMO-activating enzyme (Homo sapiens, UniProt Q9UBT2); assay: SUMOylation inhibitor hit validation, confirmation, SUMOylation inhibitor project, biochemical, AlphaScreen (AID 2018); assay type: functional
# T2 sequence (Q9UBE0 whole entry): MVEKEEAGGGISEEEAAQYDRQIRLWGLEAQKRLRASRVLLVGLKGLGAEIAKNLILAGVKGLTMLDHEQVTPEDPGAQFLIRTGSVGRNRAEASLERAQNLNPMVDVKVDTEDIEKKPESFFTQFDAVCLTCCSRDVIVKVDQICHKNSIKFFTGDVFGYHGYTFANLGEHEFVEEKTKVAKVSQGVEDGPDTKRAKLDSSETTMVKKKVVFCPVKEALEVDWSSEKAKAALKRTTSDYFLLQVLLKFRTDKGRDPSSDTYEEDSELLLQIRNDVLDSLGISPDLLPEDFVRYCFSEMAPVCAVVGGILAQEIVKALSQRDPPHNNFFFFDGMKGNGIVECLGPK
# T2 sequence (Q9UBT2 whole entry): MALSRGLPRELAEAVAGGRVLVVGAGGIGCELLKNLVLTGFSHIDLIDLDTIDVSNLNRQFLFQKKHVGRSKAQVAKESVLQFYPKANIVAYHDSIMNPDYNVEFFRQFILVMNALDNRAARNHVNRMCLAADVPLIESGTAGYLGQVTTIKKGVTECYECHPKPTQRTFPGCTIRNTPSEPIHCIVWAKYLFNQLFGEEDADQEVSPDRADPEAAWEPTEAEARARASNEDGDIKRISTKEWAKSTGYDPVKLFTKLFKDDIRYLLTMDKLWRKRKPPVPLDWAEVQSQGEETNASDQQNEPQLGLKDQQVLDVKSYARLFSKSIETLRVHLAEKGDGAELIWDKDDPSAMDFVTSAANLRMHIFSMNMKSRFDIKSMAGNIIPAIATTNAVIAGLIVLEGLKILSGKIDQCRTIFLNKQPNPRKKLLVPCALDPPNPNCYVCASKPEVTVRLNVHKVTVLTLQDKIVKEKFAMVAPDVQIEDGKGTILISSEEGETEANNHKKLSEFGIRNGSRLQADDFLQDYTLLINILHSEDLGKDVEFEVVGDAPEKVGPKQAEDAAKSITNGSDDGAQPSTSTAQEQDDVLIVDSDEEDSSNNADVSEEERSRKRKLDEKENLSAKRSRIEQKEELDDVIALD
# [9] = target: T3, Voltage-gated N-type calcium channel alpha-1B subunit/Amyloid beta A4 precursor protein-binding family A member 1 (Homo sapiens, UniProt Q00975+Q02410); assay type: protein assay
# [10] = target: Transitional endoplasmic reticulum ATPase (Homo sapiens, UniProt P55072, C522A); assay: C522A mutant p97 ATPase inhibitors, dose response, counter-screen for p97 inhibitor project, biochemical, luminescence (AID 1544)
# SUMO-activating enzyme [11] = target: T2, SUMO-activating enzyme; assay: inhibitors of in vitro SUMOylation cascade, primary screen, biochemical, HTRF, uHTS (AID 2006); assay type: protein-complex assay
# [12] = target: T3, Voltage-gated N-type calcium channel alpha-1B subunit/Amyloid beta A4 precursor protein-binding family A member 1; assay type: protein assay; remark: listed apart in the source
# [13] = target: Transitional endoplasmic reticulum ATPase (Homo sapiens, UniProt P55072); assay: p97 ATPase inhibitors, dose response, biochemical (AID 1534)
# Chain of Transitional endoplasmic reticulum ATPase (Homo sapiens, UniProt P55072) (P55072 whole entry): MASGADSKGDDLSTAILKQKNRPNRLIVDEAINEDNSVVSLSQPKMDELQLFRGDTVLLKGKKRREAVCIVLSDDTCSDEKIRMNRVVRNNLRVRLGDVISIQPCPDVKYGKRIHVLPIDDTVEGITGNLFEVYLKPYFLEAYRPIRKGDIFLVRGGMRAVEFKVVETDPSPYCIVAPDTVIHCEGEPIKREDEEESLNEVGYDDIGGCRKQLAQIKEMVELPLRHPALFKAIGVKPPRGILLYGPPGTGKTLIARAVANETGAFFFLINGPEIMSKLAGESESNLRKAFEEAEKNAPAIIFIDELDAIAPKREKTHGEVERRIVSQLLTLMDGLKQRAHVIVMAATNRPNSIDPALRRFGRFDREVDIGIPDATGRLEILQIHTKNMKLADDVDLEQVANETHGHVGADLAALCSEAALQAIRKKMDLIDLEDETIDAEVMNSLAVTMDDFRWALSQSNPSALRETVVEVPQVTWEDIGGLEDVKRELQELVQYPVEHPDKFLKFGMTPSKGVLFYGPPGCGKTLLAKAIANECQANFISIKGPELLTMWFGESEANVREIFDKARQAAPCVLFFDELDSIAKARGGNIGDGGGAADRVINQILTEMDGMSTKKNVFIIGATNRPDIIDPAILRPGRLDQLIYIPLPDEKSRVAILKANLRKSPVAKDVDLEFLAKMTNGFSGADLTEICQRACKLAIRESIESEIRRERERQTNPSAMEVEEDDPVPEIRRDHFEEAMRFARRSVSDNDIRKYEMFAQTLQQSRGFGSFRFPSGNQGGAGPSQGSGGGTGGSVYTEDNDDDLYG
# [14] = target: Induced myeloid leukemia cell differentiation protein Mcl-1 (Homo sapiens, UniProt Q07820); assay type: functional
# SUMO E1/E2 = SUMO E1/E2 (Homo sapiens, UniProt P63279+Q9UBE0+Q9UBT2); assay: SAR analysis of SUMOylation using HTRF in an in-Vitro dose response assay. [Related pubchem assays (depositor defined):AID2006, AID2011, AID2018, AID2069, AID2658]; assay type: functional
# Genome polyprotein = Genome polyprotein (dengue virus type 2, UniProt P29990); assay: Dengue-2 NS5 methyltransferase inhibitors, primary screen, biochemical, confirmation dose response (AID 588689); assay type: functional
# [15] = target: DNA (cytosine-5)-methyltransferase 1 (Homo sapiens, UniProt P26358); assay: DNMT1 methyltransferase inhibitors, confirmation, biochemical, fluorescent molecular beacon (AID 602386); assay type: functional
# Chain of DNA (cytosine-5)-methyltransferase 1 (P26358 whole entry): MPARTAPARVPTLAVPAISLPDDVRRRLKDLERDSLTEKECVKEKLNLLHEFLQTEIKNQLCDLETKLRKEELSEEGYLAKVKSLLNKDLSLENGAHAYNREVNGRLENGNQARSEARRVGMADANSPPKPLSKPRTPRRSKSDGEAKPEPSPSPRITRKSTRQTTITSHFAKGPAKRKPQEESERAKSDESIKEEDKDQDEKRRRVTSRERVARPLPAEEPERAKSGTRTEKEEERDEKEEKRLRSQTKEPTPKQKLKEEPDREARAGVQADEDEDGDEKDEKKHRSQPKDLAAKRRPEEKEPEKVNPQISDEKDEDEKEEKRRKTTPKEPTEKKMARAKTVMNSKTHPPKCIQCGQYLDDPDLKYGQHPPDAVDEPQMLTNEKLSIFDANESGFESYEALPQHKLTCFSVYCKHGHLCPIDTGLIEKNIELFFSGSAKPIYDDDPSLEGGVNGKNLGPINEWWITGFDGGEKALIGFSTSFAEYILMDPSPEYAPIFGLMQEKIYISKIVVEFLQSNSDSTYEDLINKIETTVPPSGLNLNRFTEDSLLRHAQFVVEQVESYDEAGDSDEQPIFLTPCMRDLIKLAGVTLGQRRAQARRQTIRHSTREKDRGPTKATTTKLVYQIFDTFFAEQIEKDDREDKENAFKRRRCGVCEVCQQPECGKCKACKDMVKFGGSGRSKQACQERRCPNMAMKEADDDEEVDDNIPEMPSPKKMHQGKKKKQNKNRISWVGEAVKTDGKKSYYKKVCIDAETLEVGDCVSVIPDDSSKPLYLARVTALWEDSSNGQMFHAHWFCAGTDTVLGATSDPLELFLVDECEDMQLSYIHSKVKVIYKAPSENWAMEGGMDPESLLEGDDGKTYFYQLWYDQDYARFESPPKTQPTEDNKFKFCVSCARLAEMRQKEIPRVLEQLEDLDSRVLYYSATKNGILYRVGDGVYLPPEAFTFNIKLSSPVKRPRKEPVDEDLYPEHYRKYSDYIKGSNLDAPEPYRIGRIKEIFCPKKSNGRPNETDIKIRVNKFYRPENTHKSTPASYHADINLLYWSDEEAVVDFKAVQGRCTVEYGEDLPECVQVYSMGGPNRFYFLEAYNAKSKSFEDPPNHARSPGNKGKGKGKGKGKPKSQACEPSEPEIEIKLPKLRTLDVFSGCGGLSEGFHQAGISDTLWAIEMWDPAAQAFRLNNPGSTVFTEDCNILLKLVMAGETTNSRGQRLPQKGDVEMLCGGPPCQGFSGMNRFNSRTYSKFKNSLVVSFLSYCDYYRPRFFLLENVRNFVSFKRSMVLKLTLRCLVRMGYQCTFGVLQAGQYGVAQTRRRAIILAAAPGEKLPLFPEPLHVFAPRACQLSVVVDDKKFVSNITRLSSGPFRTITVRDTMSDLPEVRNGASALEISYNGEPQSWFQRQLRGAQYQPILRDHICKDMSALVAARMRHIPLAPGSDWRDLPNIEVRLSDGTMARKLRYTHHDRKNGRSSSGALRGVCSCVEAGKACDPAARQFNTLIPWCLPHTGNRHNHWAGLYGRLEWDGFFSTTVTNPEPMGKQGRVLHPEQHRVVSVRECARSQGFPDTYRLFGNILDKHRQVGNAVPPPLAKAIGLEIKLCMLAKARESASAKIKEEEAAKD
# Caspase-6 = target: T4, Caspase-6 (Homo sapiens, UniProt P55212); assay: human caspase-6 inhibitors, dose response, biochemical, VEID-R110 fluorescence, cherry-pick (AID 720632)
# T4 sequence (P55212 whole entry): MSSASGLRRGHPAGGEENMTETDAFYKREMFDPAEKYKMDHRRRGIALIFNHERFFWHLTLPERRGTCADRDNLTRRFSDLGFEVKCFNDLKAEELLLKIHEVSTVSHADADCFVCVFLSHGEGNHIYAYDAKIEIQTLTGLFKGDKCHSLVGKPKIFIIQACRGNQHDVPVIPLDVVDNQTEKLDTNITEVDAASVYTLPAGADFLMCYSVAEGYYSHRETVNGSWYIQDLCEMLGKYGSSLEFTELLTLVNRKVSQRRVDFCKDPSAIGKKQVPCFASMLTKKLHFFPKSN
# [16] = target: T5, Histone-lysine N-methyltransferase NSD2 (Homo sapiens, UniProt O96028); assay type: biochemical
# T5 sequence (O96028 whole entry): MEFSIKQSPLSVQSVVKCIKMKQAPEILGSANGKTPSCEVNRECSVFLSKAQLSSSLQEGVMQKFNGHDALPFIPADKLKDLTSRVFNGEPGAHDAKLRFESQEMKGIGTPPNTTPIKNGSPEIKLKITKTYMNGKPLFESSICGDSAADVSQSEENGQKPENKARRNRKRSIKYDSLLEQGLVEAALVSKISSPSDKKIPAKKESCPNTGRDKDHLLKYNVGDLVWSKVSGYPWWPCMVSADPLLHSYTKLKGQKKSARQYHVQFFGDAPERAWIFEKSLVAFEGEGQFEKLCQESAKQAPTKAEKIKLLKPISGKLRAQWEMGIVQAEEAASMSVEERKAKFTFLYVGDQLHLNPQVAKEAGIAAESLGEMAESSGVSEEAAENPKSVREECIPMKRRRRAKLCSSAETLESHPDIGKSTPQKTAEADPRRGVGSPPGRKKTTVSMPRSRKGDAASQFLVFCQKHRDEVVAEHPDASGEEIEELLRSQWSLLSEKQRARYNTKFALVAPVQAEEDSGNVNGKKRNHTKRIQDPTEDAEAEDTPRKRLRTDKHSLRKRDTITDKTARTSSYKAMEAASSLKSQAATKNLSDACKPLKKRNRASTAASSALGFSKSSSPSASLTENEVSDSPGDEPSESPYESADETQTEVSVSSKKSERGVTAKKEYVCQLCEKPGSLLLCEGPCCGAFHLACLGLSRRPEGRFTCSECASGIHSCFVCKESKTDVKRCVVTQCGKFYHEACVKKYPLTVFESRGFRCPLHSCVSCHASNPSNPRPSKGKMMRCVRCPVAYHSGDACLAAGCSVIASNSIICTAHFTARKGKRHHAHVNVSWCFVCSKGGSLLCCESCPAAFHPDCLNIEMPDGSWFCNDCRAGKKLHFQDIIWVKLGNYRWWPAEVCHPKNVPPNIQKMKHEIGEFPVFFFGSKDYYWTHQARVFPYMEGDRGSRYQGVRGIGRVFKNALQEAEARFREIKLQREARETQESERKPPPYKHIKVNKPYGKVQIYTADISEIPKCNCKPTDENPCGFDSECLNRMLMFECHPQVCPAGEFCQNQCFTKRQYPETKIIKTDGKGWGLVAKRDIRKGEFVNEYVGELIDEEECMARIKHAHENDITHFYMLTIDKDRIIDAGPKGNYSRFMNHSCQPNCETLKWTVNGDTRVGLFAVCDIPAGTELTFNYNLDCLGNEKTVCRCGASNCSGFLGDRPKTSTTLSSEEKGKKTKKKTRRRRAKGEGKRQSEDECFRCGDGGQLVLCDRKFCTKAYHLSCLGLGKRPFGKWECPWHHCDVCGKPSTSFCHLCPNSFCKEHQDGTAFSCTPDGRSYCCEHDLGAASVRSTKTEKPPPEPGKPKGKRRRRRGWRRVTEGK
# [17] = SFLLRN-induced P-Selectin Platelet Surface Expression Measured in Cell-Based System Using Flow Cytometry - 2016-03_Inhibitor_Dose_DryPowder_Activity_Set3. [Related pubchem assays (depositor defined):AID1678]; assay type: functional
# [18] = Luminescence Cell-Based Dose Response Follow up to Identify Inhibitors of Platelet Dense Granule Release. [Related pubchem assays (depositor defined):AID1663, AID1678, AID1889, AID2519]; assay type: functional
# [19] = target: T6, Mannose-6-phosphate isomerase (Homo sapiens, UniProt P34949); assay: PMI enzyme inhibitors, confirmation, biochemical, fluorescence intensity (AID 1535)
# T6 sequence (P34949 whole entry): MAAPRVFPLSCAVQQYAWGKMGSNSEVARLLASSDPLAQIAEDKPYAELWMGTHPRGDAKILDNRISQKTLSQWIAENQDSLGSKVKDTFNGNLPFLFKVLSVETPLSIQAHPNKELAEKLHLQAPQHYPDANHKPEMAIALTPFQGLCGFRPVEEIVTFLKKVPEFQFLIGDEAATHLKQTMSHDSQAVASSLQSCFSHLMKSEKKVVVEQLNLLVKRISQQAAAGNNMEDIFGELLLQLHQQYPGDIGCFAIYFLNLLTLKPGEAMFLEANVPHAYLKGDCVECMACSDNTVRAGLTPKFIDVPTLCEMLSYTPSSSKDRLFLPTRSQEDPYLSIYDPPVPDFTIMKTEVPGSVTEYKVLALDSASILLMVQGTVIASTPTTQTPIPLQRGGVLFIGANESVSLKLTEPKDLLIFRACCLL
# [20] = growth induction of Burl-1 ts yeast mutant, dose response, counter-screen for SUMOylation pathway inhibitor project, whole organism, S. cerevisiae, luminescence (AID 463199); assay type: functional
# [21] = inhibitors of Trypanosoma cruzi host-cell infection, confirmation, beta-gal luminescence, NIH3T3 host cells (AID 2630); assay type: functional, cell-based; settings: Mus musculus
smiles,measurement,setting,value
COc1ccc(-n2c(N)c(C(=O)NCc3ccco3)c3nc4ccccc4nc32)c(OC)c1,AC50,Trypsin,2.87 µM (active)
same,AC50,CAAX prenyl protease 1,5.18 µM (active)
same,AC50,CAAX prenyl protease 2,2.3 µM (active)
O=[N+]([O-])c1ccc(O)c(-c2nn[nH]n2)c1,IC50,[1],> 67 µM (not active)
same,IC50,[2],44.5 µM (not active)
same,AC50,[3],4.74 µM (active)
same,AC50,[4],121 µM (active)
Nc1cccc(N2C(=O)c3cccc4c(N)ccc(c34)C2=O)c1,IC50,Beta-lactamase [5],31 µM (inactive)
same,IC50,Beta-lactamase [6],16.8 µM (inactive)
same,AC50,ORF 73,6.98 µM (active)
same,AC50,[7],3.13 µM (active)
same,AC50,Keap1/Nrf2,4.29 µM (active)
O=C(O)c1ccc(NS(=O)(=O)c2ccc3c(c2)C2C=CCC2C(c2ccccc2F)N3)cc1 (stereo unspecified),IC50,Aminopeptidase N,2.75 µM (active)
same,IC50,SUMO-activating enzyme [8],4.63 µM (active)
same,IC50,[9],> 56.8 µM (not active)
same,IC50,[10],> 50 µM (not active)
same,IC50,SUMO-activating enzyme [11],19.5 µM (active)
same,IC50,[12],> 50 µM (inactive)
same,IC50,[13],19 µM (not active)
same,IC50,[14],2.58 µM (active)
same,IC50,SUMO E1/E2,35.3 µM (active)
same,AC50,ORF 73,109 µM (active)
same,IC50,Genome polyprotein,62.3 µM (active)
same,IC50,[15],10.1 µM (active)
same,AC50,Caspase-6,13.7 µM (active)
same,AC50,[16],10.2 µM (active)
CC(=O)Nc1cccc(NC(=O)c2ccccc2Cl)c1,AC50,[17],53.9 µM (active)
same,EC50,[18],147 µM (active)
O=c1c2ccccc2[nH]n1-c1ccccc1,IC50,[19],44.9 µM (active)
CSc1ccc(Cl)c(C(=O)Nc2ccc(N3CCOCC3)cc2)c1,AC50,[20],57.3 µM (active)
Cn1cc(CN2CCCC(C(=O)c3ccc(C(C)(C)C)cc3)C2)cn1 (stereo unspecified),EC50,[21],1.25 µM (active)
